These results are taken from patent US20250197864A1, “LNCRNA TRANSCRIPTS IN MELANOMAGENESIS” (The Regents of the University of California, priority 2021, published 2025).

In this series the test system is Caspase 3+7. In words: Caspase Glo 3/7 assay in D04 cell line. The conditions noted are these: ASO 50 nM, 1 day, vs control ASOs. In kind it is cell-based, human. As to the method:
Dependent on cell doubling time, 2-3×10^^3 cells were seeded in 96 well plates. 1 day after seeding cells were incubated in media with 50 nM oligonucleotide concentration and transfection reagent. 1 day after transfection Total luminescence was measured on the SynergyHT plate reader (BioTek) using Gen5 software. Experiments were performed in quadruplicates.

For “GACTGGAGATAATTAA (gapmer, pattern not given here) [SEQ ID NO: 15, GapmeR ASO targeting AC004540.4 (TRASH), exon region of both isoforms; used for in vitro experiments]”, the “Caspase-3 &-7 activity increase” value is given as 3.0 fold.
